Laboratory results published in the kinase profiling compilation of Christmann-Franck et al. (2016).
Where “and” joins values, the source holds several entries; their conditions need not be identical. Equal entries are not always repeated. Each block holds one compound with its values, some of them ahead of it.

Legend:
Experiment in all cases: Caliper, Mobility shift assay off-chip
AURKA (human) = AURKA (human) (UniProt O14965)
RPS6KA4 KD1 KD2 (human) = RPS6KA4 KD1 KD2 (human) (UniProt O75676)
[1] = test system: FLT3 (human), P36888 [D835Y]
MARK1 (human) = MARK1 (human) (UniProt Q9P0L2)
CHEK2 (human) = CHEK2 (human) (UniProt O96017)
PRKD3 (human) = PRKD3 (human) (UniProt O94806)
SGK1 (human) = SGK1 (human) (UniProt O00141)
PIM2 (human) = PIM2 (human) (UniProt Q9P1W9)
AKT1 (human) = AKT1 (human) (UniProt P31749)
PRKG1 (human) = PRKG1 (human) (UniProt Q13976)
PRKCD (human) = PRKCD (human) (UniProt Q05655)
PAK2 (human) = PAK2 (human) (UniProt Q13177)
MAPK12 (human) = MAPK12 (human) (UniProt P53778)
RAF1 (human) = RAF1 (human) (UniProt P04049)
AURKC (human) = AURKC (human) (UniProt Q9UQB9)
PRKCG (human) = PRKCG (human) (UniProt P05129)
FLT3 (human) = FLT3 (human) (UniProt P36888)
MAPK11 (human) = MAPK11 (human) (UniProt Q15759)
PRKD2 (human) = PRKD2 (human) (UniProt Q9BZL6)
TSSK2 (human) = TSSK2 (human) (UniProt Q96PF2)
PRKCE (human) = PRKCE (human) (UniProt Q02156)
AKT2 (human) = AKT2 (human) (UniProt P31751)
STK3 (human) = STK3 (human) (UniProt Q13188)
FYN (human) = FYN (human) (UniProt P06241)
Chain of FYN (human) (P06241 whole entry, looked up): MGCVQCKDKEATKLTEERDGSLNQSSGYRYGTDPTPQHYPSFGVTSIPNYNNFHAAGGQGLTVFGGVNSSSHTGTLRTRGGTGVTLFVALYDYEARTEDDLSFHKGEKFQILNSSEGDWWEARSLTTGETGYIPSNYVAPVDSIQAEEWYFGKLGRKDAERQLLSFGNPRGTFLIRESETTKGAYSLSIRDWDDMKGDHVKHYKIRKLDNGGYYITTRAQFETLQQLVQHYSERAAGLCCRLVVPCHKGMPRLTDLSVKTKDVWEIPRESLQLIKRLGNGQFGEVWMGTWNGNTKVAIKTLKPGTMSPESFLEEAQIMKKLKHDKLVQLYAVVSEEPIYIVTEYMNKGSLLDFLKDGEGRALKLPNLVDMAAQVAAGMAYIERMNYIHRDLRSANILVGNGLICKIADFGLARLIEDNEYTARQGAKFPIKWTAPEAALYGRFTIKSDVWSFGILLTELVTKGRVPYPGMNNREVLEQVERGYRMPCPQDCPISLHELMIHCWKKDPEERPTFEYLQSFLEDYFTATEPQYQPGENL

Chain of PRKD2 (human) (Q9BZL6 whole entry, looked up): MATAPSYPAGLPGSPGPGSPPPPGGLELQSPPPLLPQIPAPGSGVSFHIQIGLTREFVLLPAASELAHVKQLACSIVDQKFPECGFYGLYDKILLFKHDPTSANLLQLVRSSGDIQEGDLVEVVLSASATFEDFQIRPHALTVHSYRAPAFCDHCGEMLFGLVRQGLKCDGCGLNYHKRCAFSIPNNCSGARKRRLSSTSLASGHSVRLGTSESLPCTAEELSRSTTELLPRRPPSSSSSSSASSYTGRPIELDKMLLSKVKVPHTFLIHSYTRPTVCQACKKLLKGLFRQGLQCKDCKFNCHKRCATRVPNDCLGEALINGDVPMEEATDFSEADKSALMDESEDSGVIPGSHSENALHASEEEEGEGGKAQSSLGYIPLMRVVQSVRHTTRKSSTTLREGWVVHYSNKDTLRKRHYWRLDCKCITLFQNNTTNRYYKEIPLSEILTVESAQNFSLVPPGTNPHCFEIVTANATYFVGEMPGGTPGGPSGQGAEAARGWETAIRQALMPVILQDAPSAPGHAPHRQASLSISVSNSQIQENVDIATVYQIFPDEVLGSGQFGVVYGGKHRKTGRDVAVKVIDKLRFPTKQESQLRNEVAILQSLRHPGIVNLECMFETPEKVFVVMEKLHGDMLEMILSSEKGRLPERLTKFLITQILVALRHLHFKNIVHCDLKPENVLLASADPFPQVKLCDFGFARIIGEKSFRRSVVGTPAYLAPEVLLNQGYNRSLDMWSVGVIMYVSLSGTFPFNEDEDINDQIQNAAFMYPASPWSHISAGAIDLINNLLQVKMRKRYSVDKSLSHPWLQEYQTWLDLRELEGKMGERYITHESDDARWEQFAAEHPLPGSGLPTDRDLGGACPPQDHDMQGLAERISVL
Chain of PRKD3 (human) (O94806 whole entry, looked up): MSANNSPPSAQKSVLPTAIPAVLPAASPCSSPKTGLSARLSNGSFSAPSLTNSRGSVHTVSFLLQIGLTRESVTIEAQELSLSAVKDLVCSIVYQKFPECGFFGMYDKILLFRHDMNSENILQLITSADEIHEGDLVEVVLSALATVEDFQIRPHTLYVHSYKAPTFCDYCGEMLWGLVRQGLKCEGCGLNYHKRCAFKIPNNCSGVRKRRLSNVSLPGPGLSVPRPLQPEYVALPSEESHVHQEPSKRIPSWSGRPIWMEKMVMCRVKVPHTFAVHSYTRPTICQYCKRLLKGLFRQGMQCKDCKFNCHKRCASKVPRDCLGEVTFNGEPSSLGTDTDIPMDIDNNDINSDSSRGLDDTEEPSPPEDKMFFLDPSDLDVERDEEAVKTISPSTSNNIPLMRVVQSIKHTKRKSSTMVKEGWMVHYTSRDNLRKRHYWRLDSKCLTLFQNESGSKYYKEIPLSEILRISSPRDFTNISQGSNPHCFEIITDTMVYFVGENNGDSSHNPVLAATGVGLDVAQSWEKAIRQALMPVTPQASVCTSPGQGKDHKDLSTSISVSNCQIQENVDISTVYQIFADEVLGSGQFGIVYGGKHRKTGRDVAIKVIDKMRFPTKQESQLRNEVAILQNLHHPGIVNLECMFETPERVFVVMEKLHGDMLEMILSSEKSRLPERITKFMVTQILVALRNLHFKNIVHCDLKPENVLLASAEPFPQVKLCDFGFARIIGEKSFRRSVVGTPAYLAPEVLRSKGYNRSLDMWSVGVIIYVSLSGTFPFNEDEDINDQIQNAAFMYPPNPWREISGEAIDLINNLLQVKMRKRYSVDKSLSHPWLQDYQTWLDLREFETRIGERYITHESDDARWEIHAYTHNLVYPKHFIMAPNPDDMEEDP
Chain of AURKA (human) (O14965 whole entry, looked up): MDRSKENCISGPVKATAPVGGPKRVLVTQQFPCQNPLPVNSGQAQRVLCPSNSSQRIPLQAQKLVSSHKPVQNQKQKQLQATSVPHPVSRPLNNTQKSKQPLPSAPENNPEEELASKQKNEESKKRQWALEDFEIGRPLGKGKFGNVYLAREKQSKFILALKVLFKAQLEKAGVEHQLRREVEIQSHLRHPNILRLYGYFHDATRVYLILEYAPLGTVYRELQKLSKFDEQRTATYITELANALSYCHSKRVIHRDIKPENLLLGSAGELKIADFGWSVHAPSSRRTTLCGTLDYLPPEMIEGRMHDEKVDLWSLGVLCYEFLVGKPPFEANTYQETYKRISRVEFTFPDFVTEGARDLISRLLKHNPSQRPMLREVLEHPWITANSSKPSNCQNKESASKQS
Chain of PRKCD (human) (Q05655 whole entry, looked up): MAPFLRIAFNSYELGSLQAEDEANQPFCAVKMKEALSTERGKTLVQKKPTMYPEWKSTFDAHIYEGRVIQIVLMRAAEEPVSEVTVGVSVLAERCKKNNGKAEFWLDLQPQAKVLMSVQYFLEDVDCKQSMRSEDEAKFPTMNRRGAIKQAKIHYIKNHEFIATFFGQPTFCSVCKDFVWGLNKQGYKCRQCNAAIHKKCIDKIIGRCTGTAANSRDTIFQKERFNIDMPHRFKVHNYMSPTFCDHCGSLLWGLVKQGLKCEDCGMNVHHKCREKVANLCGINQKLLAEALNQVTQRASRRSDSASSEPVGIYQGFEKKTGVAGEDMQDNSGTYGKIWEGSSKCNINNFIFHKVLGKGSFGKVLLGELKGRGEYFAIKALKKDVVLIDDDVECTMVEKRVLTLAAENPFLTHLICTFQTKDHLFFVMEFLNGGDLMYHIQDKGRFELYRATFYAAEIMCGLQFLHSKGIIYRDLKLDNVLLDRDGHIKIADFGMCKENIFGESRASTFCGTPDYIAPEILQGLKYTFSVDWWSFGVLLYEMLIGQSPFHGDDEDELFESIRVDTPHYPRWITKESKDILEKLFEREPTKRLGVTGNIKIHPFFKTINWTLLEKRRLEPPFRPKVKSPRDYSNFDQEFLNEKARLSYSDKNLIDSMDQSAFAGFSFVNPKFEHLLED
Chain of AKT2 (human) (P31751 whole entry, looked up): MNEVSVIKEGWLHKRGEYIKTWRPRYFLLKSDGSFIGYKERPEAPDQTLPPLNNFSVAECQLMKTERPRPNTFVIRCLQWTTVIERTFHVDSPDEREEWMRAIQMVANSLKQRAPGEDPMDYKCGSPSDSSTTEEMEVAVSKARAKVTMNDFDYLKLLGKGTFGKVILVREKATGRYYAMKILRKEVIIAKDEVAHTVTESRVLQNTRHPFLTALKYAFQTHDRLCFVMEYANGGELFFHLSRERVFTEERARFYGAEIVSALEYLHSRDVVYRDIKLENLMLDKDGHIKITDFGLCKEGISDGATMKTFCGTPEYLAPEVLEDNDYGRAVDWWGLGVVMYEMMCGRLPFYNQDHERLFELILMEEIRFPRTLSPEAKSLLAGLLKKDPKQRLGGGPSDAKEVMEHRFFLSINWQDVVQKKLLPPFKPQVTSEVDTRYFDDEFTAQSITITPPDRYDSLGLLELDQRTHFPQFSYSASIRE
Chain of MAPK11 (human) (Q15759 whole entry, looked up): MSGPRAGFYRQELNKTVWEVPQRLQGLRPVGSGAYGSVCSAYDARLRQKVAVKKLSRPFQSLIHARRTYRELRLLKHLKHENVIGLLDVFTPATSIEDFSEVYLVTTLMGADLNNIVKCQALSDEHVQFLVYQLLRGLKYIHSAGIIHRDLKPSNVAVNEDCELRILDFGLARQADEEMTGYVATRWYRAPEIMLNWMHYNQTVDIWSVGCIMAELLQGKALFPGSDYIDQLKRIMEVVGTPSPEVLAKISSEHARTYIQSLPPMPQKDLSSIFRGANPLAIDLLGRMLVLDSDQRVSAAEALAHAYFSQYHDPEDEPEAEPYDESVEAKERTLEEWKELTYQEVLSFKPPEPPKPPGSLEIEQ
Chain of MARK1 (human) (Q9P0L2 whole entry, looked up): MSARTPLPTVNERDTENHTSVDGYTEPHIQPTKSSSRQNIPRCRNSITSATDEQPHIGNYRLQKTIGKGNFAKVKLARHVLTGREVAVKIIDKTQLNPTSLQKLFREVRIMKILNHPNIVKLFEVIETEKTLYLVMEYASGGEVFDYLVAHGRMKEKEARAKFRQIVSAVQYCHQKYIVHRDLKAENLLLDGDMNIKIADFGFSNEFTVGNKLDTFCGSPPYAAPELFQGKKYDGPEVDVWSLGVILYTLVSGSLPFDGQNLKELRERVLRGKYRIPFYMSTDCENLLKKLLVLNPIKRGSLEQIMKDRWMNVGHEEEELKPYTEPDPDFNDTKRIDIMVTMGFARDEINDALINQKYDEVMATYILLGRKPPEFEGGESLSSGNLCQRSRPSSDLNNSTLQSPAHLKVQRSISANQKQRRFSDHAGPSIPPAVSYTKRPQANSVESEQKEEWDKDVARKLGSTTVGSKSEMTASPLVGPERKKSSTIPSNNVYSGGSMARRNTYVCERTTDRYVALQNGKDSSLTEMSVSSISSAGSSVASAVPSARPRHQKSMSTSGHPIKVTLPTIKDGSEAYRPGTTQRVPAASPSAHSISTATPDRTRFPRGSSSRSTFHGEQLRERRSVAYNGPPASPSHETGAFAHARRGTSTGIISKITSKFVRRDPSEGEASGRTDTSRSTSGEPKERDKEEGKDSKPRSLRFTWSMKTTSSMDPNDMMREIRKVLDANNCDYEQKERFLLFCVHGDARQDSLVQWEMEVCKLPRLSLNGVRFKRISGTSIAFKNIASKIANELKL

inhibition (AURKA (human); compound 0.1 µM): 27.6%
inhibition (AURKA (human); compound 1.0 µM): 75.5%
inhibition (RPS6KA4 KD1 KD2 (human); compound 0.1 µM): 15.2%
inhibition ([1]; compound 0.1 µM): 19.1%
inhibition ([1]; compound 1.0 µM): 73.7%
inhibition (MARK1 (human); compound 0.1 µM): 16.5%
inhibition (MARK1 (human); compound 1.0 µM): 81.8%
inhibition (CHEK2 (human); compound 0.1 µM): -3.5%
inhibition (CHEK2 (human); compound 1.0 µM): 0.7%
inhibition (PRKD3 (human); compound 0.1 µM): -8.8%
inhibition (PRKD3 (human); compound 1.0 µM): -1.8%
inhibition (SGK1 (human); compound 0.1 µM): 6.8%
inhibition (SGK1 (human); compound 1.0 µM): 11.5%
inhibition (PIM2 (human); compound 0.1 µM): 15.4%
inhibition (PIM2 (human); compound 1.0 µM): 16.5%
inhibition (AKT1 (human); compound 0.1 µM): -2.2%
inhibition (AKT1 (human); compound 1.0 µM): 1.3%
inhibition (PRKG1 (human); compound 0.1 µM): -0.5% and 2.6%
inhibition (PRKG1 (human); compound 1.0 µM): 9.6% and -5.9%
inhibition (PRKCD (human); compound 0.1 µM): 5.1%
inhibition (PAK2 (human); compound 0.1 µM): 1.7%
inhibition (PAK2 (human); compound 1.0 µM): 0.8%
inhibition (MAPK12 (human); compound 0.1 µM): -5.4%
inhibition (MAPK12 (human); compound 1.0 µM): 2.9%
inhibition (RAF1 (human); compound 0.1 µM): 6.2%
inhibition (RAF1 (human); compound 1.0 µM): -3.8%
inhibition (AURKC (human); compound 0.1 µM): 27.7%
inhibition (AURKC (human); compound 1.0 µM): 76.2%
inhibition (PRKCG (human); compound 0.1 µM): -1.4%
inhibition (FLT3 (human); compound 0.1 µM): 4.2%
inhibition (FLT3 (human); compound 1.0 µM): 48.8%
inhibition (MAPK11 (human); compound 0.1 µM): -1.8%
inhibition (MAPK11 (human); compound 1.0 µM): -4.1%
inhibition (PRKD2 (human); compound 0.1 µM): 7.3%
inhibition (PRKD2 (human); compound 1.0 µM): -2.6%
inhibition (TSSK2 (human); compound 0.1 µM): -37%
inhibition (TSSK2 (human); compound 1.0 µM): 10.5%
inhibition (PRKCE (human); compound 0.1 µM): -4.6%
inhibition (PRKCE (human); compound 1.0 µM): 5.9%
inhibition (AKT2 (human); compound 0.1 µM): 1.7%
inhibition (AKT2 (human); compound 1.0 µM): 7.1%
inhibition (STK3 (human); compound 0.1 µM): 4.4%
inhibition (STK3 (human); compound 1.0 µM): 7.9%
inhibition (FYN (human); compound 0.1 µM): -3.7%
inhibition (FYN (human); compound 1.0 µM): 6%
Structure (SMILES): Cn1cc(-c2cnc3ccc4ccc(CS(N)(=O)=O)cc4c(=O)c3c2)cn1

inhibition (AURKA (human); compound 0.1 µM): 14.5%
inhibition (AURKA (human); compound 1.0 µM): 26.8%
inhibition (RPS6KA4 KD1 KD2 (human); compound 0.1 µM): 0.2%
inhibition (RPS6KA4 KD1 KD2 (human); compound 1.0 µM): -17.3%
inhibition ([1]; compound 0.1 µM): -0.3%
inhibition (MARK1 (human); compound 0.1 µM): -3.9%
inhibition (MARK1 (human); compound 1.0 µM): 33.5%
inhibition (CHEK2 (human); compound 0.1 µM): 4.63%
inhibition (CHEK2 (human); compound 1.0 µM): -0.5%
inhibition (PRKD3 (human); compound 0.1 µM): -11.5%
inhibition (PRKD3 (human); compound 1.0 µM): -4.4%
inhibition (SGK1 (human); compound 0.1 µM): 7.2%
inhibition (SGK1 (human); compound 1.0 µM): 9.6%
inhibition (PIM2 (human); compound 0.1 µM): 25.2%
inhibition (PIM2 (human); compound 1.0 µM): 16.7%
inhibition (AKT1 (human); compound 0.1 µM): 12.6%
inhibition (AKT1 (human); compound 1.0 µM): 5.2%
inhibition (PRKG1 (human); compound 0.1 µM): -3.8% and -2.5%
inhibition (PRKG1 (human); compound 1.0 µM): -2.7%
inhibition (PRKCD (human); compound 0.1 µM): -38.2%
inhibition (PRKCD (human); compound 1.0 µM): -8.2%
inhibition (PAK2 (human); compound 0.1 µM): -7.9%
inhibition (PAK2 (human); compound 1.0 µM): 0.9%
inhibition (MAPK12 (human); compound 0.1 µM): -3.3%
inhibition (MAPK12 (human); compound 1.0 µM): -11.8%
inhibition (RAF1 (human); compound 0.1 µM): 5.4%
inhibition (RAF1 (human); compound 1.0 µM): -0.8%
inhibition (AURKC (human); compound 0.1 µM): 20.9%
inhibition (PRKCG (human); compound 0.1 µM): 6.2%
inhibition (PRKCG (human); compound 1.0 µM): 2.7%
inhibition (FLT3 (human); compound 0.1 µM): 11%
inhibition (FLT3 (human); compound 1.0 µM): 36.8%
inhibition (MAPK11 (human); compound 0.1 µM): -1.4%
inhibition (PRKD2 (human); compound 0.1 µM): -3.8%
inhibition (PRKD2 (human); compound 1.0 µM): 15%
inhibition (TSSK2 (human); compound 0.1 µM): 0.7%
inhibition (PRKCE (human); compound 0.1 µM): -9.1%
inhibition (PRKCE (human); compound 1.0 µM): -5.1%
inhibition (AKT2 (human); compound 0.1 µM): 0.7%
inhibition (AKT2 (human); compound 1.0 µM): 1.9%
inhibition (STK3 (human); compound 0.1 µM): -0.1%
inhibition (STK3 (human); compound 1.0 µM): -2.7%
inhibition (FYN (human); compound 0.1 µM): 4.37%
inhibition (FYN (human); compound 1.0 µM): 15.1%
Structure (SMILES): Cn1cc(-c2cnc3ccc4ccc(CS(=O)(=O)NCC5CCCCN5)cc4c(=O)c3c2)cn1 (centres undefined)

inhibition (AURKA (human); compound 0.1 µM): 15.8%
inhibition (AURKA (human); compound 1.0 µM): 48%
inhibition (RPS6KA4 KD1 KD2 (human); compound 0.1 µM): -2.5%
inhibition (RPS6KA4 KD1 KD2 (human); compound 1.0 µM): -1.8%
inhibition ([1]; compound 0.1 µM): 2.5%
inhibition ([1]; compound 1.0 µM): 13.3%
inhibition (MARK1 (human); compound 0.1 µM): 1.2%
inhibition (MARK1 (human); compound 1.0 µM): -13.9%
inhibition (CHEK2 (human); compound 0.1 µM): -0.4%
inhibition (CHEK2 (human); compound 1.0 µM): 4.5%
inhibition (PRKD3 (human); compound 0.1 µM): -6.1%
inhibition (PRKD3 (human); compound 1.0 µM): 3.6%
inhibition (SGK1 (human); compound 0.1 µM): 1.7%
inhibition (SGK1 (human); compound 1.0 µM): -6.4%
inhibition (PIM2 (human); compound 0.1 µM): -2.1%
inhibition (PIM2 (human); compound 1.0 µM): 4.7%
inhibition (AKT1 (human); compound 0.1 µM): -1.3%
inhibition (AKT1 (human); compound 1.0 µM): 0.7%
inhibition (PRKG1 (human); compound 0.1 µM): 4.3% and 6.4%
inhibition (PRKG1 (human); compound 1.0 µM): -3.3% and -9.8%
inhibition (PRKCD (human); compound 0.1 µM): -36%
inhibition (PRKCD (human); compound 1.0 µM): 2.1%
inhibition (PAK2 (human); compound 0.1 µM): -38.4%
inhibition (PAK2 (human); compound 1.0 µM): -0.3%
inhibition (MAPK12 (human); compound 0.1 µM): -6.6%
inhibition (MAPK12 (human); compound 1.0 µM): 0.8%
inhibition (RAF1 (human); compound 0.1 µM): 5.1%
inhibition (RAF1 (human); compound 1.0 µM): 1.4%
inhibition (AURKC (human); compound 0.1 µM): 4.3%
inhibition (AURKC (human); compound 1.0 µM): 55.5%
inhibition (PRKCG (human); compound 0.1 µM): -2%
inhibition (PRKCG (human); compound 1.0 µM): -3.4%
inhibition (FLT3 (human); compound 0.1 µM): 1.3%
inhibition (FLT3 (human); compound 1.0 µM): 24.2%
inhibition (MAPK11 (human); compound 0.1 µM): -11%
inhibition (MAPK11 (human); compound 1.0 µM): -1.8%
inhibition (PRKD2 (human); compound 0.1 µM): -8.3%
inhibition (PRKD2 (human); compound 1.0 µM): -3.5%
inhibition (TSSK2 (human); compound 1.0 µM): -7.1%
inhibition (PRKCE (human); compound 0.1 µM): 6.5%
inhibition (PRKCE (human); compound 1.0 µM): 1.1%
inhibition (AKT2 (human); compound 0.1 µM): -0.1%
inhibition (AKT2 (human); compound 1.0 µM): -0.5%
inhibition (STK3 (human); compound 0.1 µM): 3.4%
inhibition (STK3 (human); compound 1.0 µM): 0.7%
inhibition (FYN (human); compound 0.1 µM): -11.5%
inhibition (FYN (human); compound 1.0 µM): -2.5%
Structure (SMILES): Cn1cc(-c2cnc3ccc4ccc(CS(=O)(=O)CCc5ccccn5)cc4c(=O)c3c2)cn1

inhibition (AURKA (human); compound 0.01 µM): -4.6%
inhibition (AURKA (human); compound 0.1 µM): 13.1%
inhibition (RPS6KA4 KD1 KD2 (human); compound 0.01 µM): 9.3%
inhibition (RPS6KA4 KD1 KD2 (human); compound 0.1 µM): -5.3%
inhibition ([1]; compound 0.01 µM): 2.3%
inhibition ([1]; compound 0.1 µM): 16.7%
inhibition (MARK1 (human); compound 0.01 µM): -0.1%
inhibition (MARK1 (human); compound 0.1 µM): -2.9%
inhibition (CHEK2 (human); compound 0.01 µM): -5.2%
inhibition (CHEK2 (human); compound 0.1 µM): -5.1%
inhibition (PRKD3 (human); compound 0.01 µM): 3.2%
inhibition (PRKD3 (human); compound 0.1 µM): -5.2%
inhibition (SGK1 (human); compound 0.01 µM): -3.6%
inhibition (SGK1 (human); compound 0.1 µM): -31.9%
inhibition (PIM2 (human); compound 0.01 µM): 4.3%
inhibition (PIM2 (human); compound 0.1 µM): 2.9%
inhibition (AKT1 (human); compound 0.01 µM): 2.8%
inhibition (AKT1 (human); compound 0.1 µM): -1.1%
inhibition (PRKG1 (human); compound 0.01 µM): 2% and 2.1%
inhibition (PRKG1 (human); compound 0.1 µM): 3.8% and -4.6%
inhibition (PRKCD (human); compound 0.01 µM): 11%
inhibition (PRKCD (human); compound 0.1 µM): 2.4%
inhibition (PAK2 (human); compound 0.01 µM): 0.1%
inhibition (PAK2 (human); compound 0.1 µM): 3.6%
inhibition (MAPK12 (human); compound 0.01 µM): -3.3%
inhibition (MAPK12 (human); compound 0.1 µM): -4.6%
inhibition (RAF1 (human); compound 0.01 µM): 1.4%
inhibition (RAF1 (human); compound 0.1 µM): 0.6%
inhibition (AURKC (human); compound 0.01 µM): -15.8%
inhibition (AURKC (human); compound 0.1 µM): 5.6%
inhibition (PRKCG (human); compound 0.01 µM): -3.2%
inhibition (PRKCG (human); compound 0.1 µM): 1.8%
inhibition (FLT3 (human); compound 0.01 µM): 0.2%
inhibition (FLT3 (human); compound 0.1 µM): 5%
inhibition (MAPK11 (human); compound 0.01 µM): -1.5%
inhibition (MAPK11 (human); compound 0.1 µM): 0.7%
inhibition (PRKD2 (human); compound 0.01 µM): -6.3%
inhibition (PRKD2 (human); compound 0.1 µM): -5.2%
inhibition (TSSK2 (human); compound 0.01 µM): 55.4%
inhibition (TSSK2 (human); compound 0.1 µM): -6.2%
inhibition (PRKCE (human); compound 0.01 µM): 1.3%
inhibition (PRKCE (human); compound 0.1 µM): -2%
inhibition (AKT2 (human); compound 0.01 µM): -0.2%
inhibition (AKT2 (human); compound 0.1 µM): -1.6%
inhibition (STK3 (human); compound 0.01 µM): 1.5%
inhibition (STK3 (human); compound 0.1 µM): 0.6%
inhibition (FYN (human); compound 0.01 µM): -0.4%
inhibition (FYN (human); compound 0.1 µM): -7.3%
Structure (SMILES): O=c1c2cc(CS(=O)(=O)NCc3ccccn3)ccc2ccc2ncc(C3CCNCC3)cc12
